Paper PMC11249953, “c-KIT inhibitors reduce pathology and improve behavior in the Tg(SwDI) model of Alzheimer’s disease” (Life Science Alliance, 2024)
Values joined by “and” are separate entries in the source; they are usually repeats but may differ in a detail not shown here. Equal entries are not always repeated. Where two headings read alike, the source gives them in different places.

Legend:
[1] = ref Fowler et al, 2020; cited from earlier work
[2] = system: amyloid-beta in TgAPP mice; experiment: ELISA for amyloid-beta in brain lysates; format: in vivo, mouse; details: vs DMSO
Experimental: All samples were analyzed in parallel using the same reagents. A total of 25 μl soluble protein was incubated overnight at 4°C with 25 μl of a mixed bead solution. After washing, samples were incubated with 25 μl detection antibody solution for 1.5 h at RT. Streptavidin–phycoerythrin (25 μl) was added to each well containing the 25 μl of detection antibody solution. Samples were then washed and suspended in 100 μl of sheath fluid. Samples were then run on MAGPIX with Xponent software. The median fluorescent intensity data were analyzed using a five-parameter logistic or spline curve-fitting method for calculating analyte concentrations in samples. Specific pTau ser396 (KHB7031; Invitrogen), aggregated Aβ (KHB3491; Thermo Fisher Scientific), and Aβ42 (KHB3442; Invitrogen) were performed according to manufacturer’s protocol on tissue soluble extracts from brain lysates in 1XSTEN buffer.

A53T mice = experiment: Novel object recognition, A53T mice; format: in vivo, mouse; details: 5 mg/kg
Experimental: Novel object recognition was carried out using a 50 × 50 cm arena with clear walls covered by brown construction paper. Mice were habituated to the room for 30 min each day, before being allowed to freely explore the arena for 5 min two times, for 3 d. On the 4th d, two identical objects were placed in the arena in opposite adjacent corners, 10 cm from the corner of the arena. Mice were placed along the wall opposite from the objects and allowed to freely explore for 10 min. Approach behavior (extending nose toward the object) toward both objects was recorded manually using handheld stop watches and compared with ensure there was no preference for either neutral object. For the probe trial, one object was removed and replaced with a novel object, and mice were again allowed to freely explore for 10 min, with approach time towards the novel and familiar objects recorded. Trials in which the mice explored for less than 1 s were excluded. Discrimination index was calculated by dividing time spent exploring the novel object by total time exploring both objects and was compared for treated versus control animals.

mice = experiment: Rotarod (source data sheets only, mouse line not given); format: in vivo; details: for Rotarod trial 1 / Rotarod trial 2: Day 1; for Rotarod trial 1 / Rotarod trial 2 / Rotarod trial 3 / Rotarod trial 4 / Rotarod trial 5 / Rotarod trial 6 / Rotarod D1 AVG / Rotarod D2 AVG / Rotarod D3 AVG / Rotarod Total AVG: individual mice, listed as 143; for Rotarod trial 3 / Rotarod trial 4: Day 2; for Rotarod trial 5 / Rotarod trial 6: Day 3
[3] = Pharmacokinetic analysis of BK40197 (brain and serum, LC-MS/MS); format: in vivo, C57BL/6 mice; details: for Kp / Tmax / AUC / Cmax: both sexes, C57BL/6, mouse; for Kp: brain/serum, intraperitoneal, read-out: brain to serum ratio
Experimental: The PK profile of BK40197 was investigated after single IP doses of 20 and 45 mg/kg BK40197 to male and female 5–6 mo old C57BL/6 mice compared with DMSO. A solution at 5 ng/ml isotope labelled reference compounds d8-BK40197 was prepared. The solvent used for internal standard (ISTD) dilution is (200 ml/50 ml) acetonitrile/ethyl acetate (ACN/EtOAc). Brain tissue was homogenized in ice water bath and was prepared using weight accurately on analytical balance with 4 decimals. A volume water (MilliQ) was added by adjustable 100–1,000 μl to a concentration at 100 mg brain tissue/ml water. Brain homogenate (25 μl) and plasma sample (25 μl) that was thawed to RT and gently mixed were pipetted to eppendorf tube with lid and 75 μl ISTD added, mixed on vortex and centrifuged for 5 min at […]. A volume of 25 μl milli-Q water and 75 μl brain or plasma samples were added into a 200 μl PE vial and mixed on vortex and 10 μl and injected on LC-MS/MS. All animal work was approved by GUACUC.

TgAPP mice = experiment: Elevated plus maze, TgAPP mice; format: in vivo, mouse; details: 45 mg/kg IP, 6 wk, vs DMSO
Experimental: The elevated plus maze was performed using a standard set up, with two enclosed arms and two open arms. Mice were placed at the intersection of the open and closed arms and allowed to freely explore for 5 min, two times. Time spent in the open and closed arms and number of entries into the open and closed arms were recorded.

Solubility in DMSO = format: physicochemical

Cc1cccc(-c2cc3nccc(Nc4ccccc4)c3s2)c1 [BK40143]
brain penetrance [1]: brain penetrant | Aβ concentration in brain lysate (ELISA) [2]: significantly reduced Aβ and pTau (396) concentrations | novel object recognition (A53T mice): significant improvements on novel object recognition | Rotarod D1 AVG, group mean (mice; 2.5mg/kg): 20.1429 s | Rotarod D2 AVG, group mean (mice; 2.5mg/kg): 81.5714 s | Rotarod D3 AVG, group mean (mice; 2.5mg/kg): 111.786 s | Rotarod Total AVG, group mean (mice; 2.5mg/kg): 71.1667 s | Rotarod trial 1 (mice; 2.5mg/kg): 2 s and 8 s and 4 s and 23 s and 9 s and 22 s | Rotarod trial 2 (mice; 2.5mg/kg): 5 s and 11 s and 17 s and 22 s and 130 s and 10 s | Rotarod trial 3 (mice; 2.5mg/kg): 13 s and 135 s and 4 s and 46 s and 129 s and 117 s | Rotarod trial 4 (mice; 2.5mg/kg): 29 s and 169 s and 6 s and 101 s and 155 s and 230 s and 4 s | Rotarod trial 5 (mice; 2.5mg/kg): 15 s and 204 s and 111 s and 60 s and 154 s and 195 s and 10 s | Rotarod trial 6 (mice; 2.5mg/kg): 60 s and 172 s and 53 s and 88 s and 157 s and 272 s and 14 s | Rotarod D1 AVG (mice; 2.5mg/kg): 3.5 s and 9.5 s and 10.5 s and 12 s and 76.5 s and 13 s and 16 s | Rotarod D2 AVG (mice; 2.5mg/kg): 21 s and 152 s and 5 s and 73.5 s and 142 s and 117 s and 60.5 s | Rotarod D3 AVG (mice; 2.5mg/kg): 37.5 s and 188 s and 82 s and 74 s and 155.5 s and 233.5 s and 12 s | Rotarod Total AVG (mice; 2.5mg/kg): 20.6667 s and 116.5 s and 32.5 s and 53.1667 s and 124.667 s and 121.167 s and 29.5 s | Rotarod D1 AVG, group mean (mice; 5.0mg/kg): 27.2 s | Rotarod D3 AVG, group mean (mice; 5.0mg/kg): 90.7 s | Rotarod trial 1 (mice; 5.0mg/kg): 54 s and 21 s and 19 s and 2 s and 14 s and 5 s and 29 s and 3 s and 1 s | Rotarod trial 2 (mice; 5.0mg/kg): 96 s and 41 s and 147 s and 28 s and 9 s and 38 s and 8 s and 10 s and 16 s and 1 s | Rotarod trial 3 (mice; 5.0mg/kg): 47 s and 74 s and 152 s and 42 s and 51 s and 45 s and 18 s and 6 s and 5 s and 3 s | Rotarod trial 4 (mice; 5.0mg/kg): 46 s and 47 s and 178 s and 87 s and 35 s and 44 s and 66 s and 4 s and 32 s and 5 s | Rotarod trial 5 (mice; 5.0mg/kg): 80 s and 109 s and 179 s and 107 s and 92 s and 172 s and 35 s and 61 s and 62 s and 2 s | Rotarod trial 6 (mice; 5.0mg/kg): 110 s and 99 s and 139 s and 103 s and 133 s and 151 s and 84 s and 20 s and 69 s and 7 s | Rotarod D1 AVG (mice; 5.0mg/kg): 75 s and 31 s and 83 s and 15 s and 11.5 s and 20 s and 6.5 s and 19.5 s and 9.5 s and 1 s | Rotarod D2 AVG (mice; 5.0mg/kg): 46.5 s and 60.5 s and 165 s and 64.5 s and 43 s and 44.5 s and 42 s and 5 s and 18.5 s and 4 s | Rotarod D3 AVG (mice; 5.0mg/kg): 95 s and 104 s and 159 s and 105 s and 112.5 s and 161.5 s and 59.5 s and 40.5 s and 65.5 s and 4.5 s | Rotarod Total AVG (mice; 5.0mg/kg): 72.1667 s and 65.1667 s and 135.667 s and 61.5 s and 55.6667 s and 75.3333 s and 36 s and 21.6667 s and 31.1667 s and 3.167 s

Cc1cccc(-c2cc3nccc(N4CCOCC4)c3s2)c1 [BK40197]
Kp ([3]; 20 mg/kg IP): 0.251 | Kp ([3]; 45 mg/kg IP): 0.201 | Tmax ([3]; brain, 20 mg/kg single IP, read-out: Brain Tmax): 2 h | Tmax ([3]; brain, 45 mg/kg single IP, read-out: Brain Tmax): 2 h | AUC ([3]; serum, 20 mg/kg single IP): 928 ng·h/mL | Cmax ([3]; serum, 20 mg/kg single IP): 543 ± 82.3 ng/g | Tmax ([3]; serum, 20 mg/kg single IP, read-out: Serum Tmax): 1 h | AUC ([3]; serum, 45 mg/kg single IP): 1940 ng·h/mL | Cmax ([3]; serum, 45 mg/kg single IP): 1100 ± 165 ng/g | Tmax ([3]; serum, 45 mg/kg single IP, read-out: Serum Tmax): 1 h | brain penetrance ([3]; single IP dose, C57BL/6 mice): brain penetrant | Aβ concentration in brain lysate (ELISA) [2]: significantly reduced Aβ and pTau (396) concentrations | elevated plus maze: time in the open arms (TgAPP mice): spent significantly greater time in the open arms of the elevated plus maze | solubility in DMSO (Solubility in DMSO): insolubility
